Data on one compound can be found in patent US6194408A, “Triazineone compounds for treating diseases due to Sarcocystis, Neospora and Toxoplasma” (Bayer Corporation, priority 1998, dated 2001).

One data set relates to Sarcocystis falcatula. Kind of data set: Microtiter Monolayer Disruption Assay (MMDA), inhibition of BT cell destruction by S. falcatula. The settings on record: 1 μg/mL, read-out: Percent Inhibition of Cell Destruction. Type of data set: cell-based. The protocol: (§1) In order to determine the scope of protection provided by Ponazuril, in vitro testing was conducted. The following strains of parasites were evaluated for their sensitivity to this compound: Strain SN3 of Sarcocystis neurona; strain SF1 of Sarcocystis falcatula; strain RH of Toxoplasma gondii; and the NC-1 strain of Neospora caninum. Ponazuril was tested at concentrations (1 μg/mL and 10 μg/mL).
(§2) Bovine turbinate (BT) cells were used for all in vitro studies. Cells were grown to confluency in 25 cm^2 flasks in RMPI 1640 media supplemented with 10% v/v fetal bovine serum (FBS), 100 Units penicillin (G/mL), […] and 5×10^-2 mM 2-mercpatoethanol. After cell confluence was obtained, cells were maintained in the same media with reduced FBS (2% v/v). Cell cultures were incubated at 37° C. in a humidified atmosphere containing 5% carbon dioxide and 95% air. […]
(§3) The assay used to determine the effectiveness of Ponazuril was the Microtiter Monolayer Disruption Assay (MMDA). […] Flat bottomed 96-well microtiter plates were inoculated with BT cells and the resulting monolayers were used to determine the effects of Toltrazuril and Ponazuril on merozoite production as measured by CPE (plaque formation). […]

The subject of another data set is Sarcocystis neurona. Put plainly: Microtiter Monolayer Disruption Assay (MMDA), inhibition of BT cell destruction by S. neurona. As to conditions: 10 μg/mL, read-out: Percent Inhibition of Cell Destruction. Type of data set: cell-based. The protocol:
as §1, §2, §3

The test system of data set [1] is Bovine turbinate (BT) cells. Format: cell-based. As to conditions: uninfected agent treated BT cells. The protocol:
Bovine turbinate (BT) cells were used for all in vitro studies. Cells were grown to confluency in 25 cm^2 flasks in RMPI 1640 media supplemented with 10% v/v fetal bovine serum (FBS), 100 Units penicillin (G/mL), […] and 5×10^-2 mM 2-mercpatoethanol. After cell confluence was obtained, cells were maintained in the same media with reduced FBS (2% v/v). Cell cultures were incubated at 37° C. in a humidified atmosphere containing 5% carbon dioxide and 95% air.
The assay used to determine the effectiveness of Ponazuril was the Microtiter Monolayer Disruption Assay (MMDA). This assay was used to determine if the parasites or compound were toxic for BT cells. Flat bottomed 96-well microtiter plates were inoculated with BT cells and the resulting monolayers were used to determine the effects of Toltrazuril and Ponazuril on merozoite production as measured by CPE (plaque formation). […]

In a further data set the test system is Neospora caninum NC-1. Put plainly: Microtiter Monolayer Disruption Assay (MMDA), inhibition of BT cell destruction by N. caninum. Format: cell-based. The settings on record: 1.0 μg/mL, read-out: Percent Inhibition of Cell Destruction. The protocol: as §1, §2, §3
The next data set deals with Toxoplasma gondii. Put plainly: Microtiter Monolayer Disruption Assay (MMDA), inhibition of BT cell destruction by T. gondii. Type of data set: cell-based. As to conditions: 1.0 μg/mL, read-out: Percent Inhibition of Cell Destruction. The protocol: as §1, §2, §3
Data set [2] can be described thus: Pharmacokinetics of a single oral dose of Toltrazuril in horses (blood levels). The settings on record: horses receiving single oral 10 mg/kg Toltrazuril. Type of data set: in vivo. The protocol:
A pharmacokinetic study was conducted in horses comparing blood levels of Toltrazuril, Ponazuril and Toltrazuril Sulfoxide at various times post a single dose of Toltrazuril. All horses received a single dose of 10 mg/kg, which was administered orally as a suspension. Blood samples were drawn at the time of treatment (0) and at 0.25, 0.5, 1, 2, 4, 6, 12, 24, 48 and 72 hours post treatment. […] This was an indication that Ponazuril, alone, would produce acceptable blood levels that are envisioned to pass the blood-brain barrier, a characteristic required to treat neurological diseases such as those caused by Sarcocystis neurona, Toxoplasma gondii, Neospora caninum and Neospora heugesi.

A short description of data set [3]: Safety and effectiveness of a single high dose. As to conditions: doses as high as 100 mg/Kg body weight. Format: in vivo. The protocol:
For the single high dose treatment the triazineone is administered in pharmaceutically effective amounts that are greater than 10 mg/Kg and up to about 100 mg/Kg. It is a distinct feature of the invention the compounds of this invention can be non-toxic, thus they can be administrated at high dose levels. The advantage of the high dose administration resides in the fact repeated doses are not required.

Another data set relates to EPM-Infected Horses. Kind of data set: Response of EPM-infected horses to treatment (clinical score). Type of data set: in vivo. The protocol:
The compound was formulated into a paste using Ponazuril as a 15% active ingredient (a.i.) as described in EXAMPLE 1. It was administered to horses already diagnosed with EPM once a day for 28 days at a dose rate between 2.5 mg/Kg and 10 mg/Kg.
Naturally occurring clinical cases of EPM were well characterized by signalment and laboratory diagnosis. The diagnosis used for incorporation of EPM-positive horses into this trial was as follows: Confirmed asymmetrical neurological deficit as determined by a standardized neurological examination, to include radiography, indicative of EPM; Positive Western Blot for Sarcocystis neurona IgG; Red Blood Cell count below 500 cells/mL; CSF indices--Total Protein <90, IgG index >0.3. AQ quotient <2.2.
Additional requirements were that the horses were not suffering from diseases other than EPM. Therefore, they had to meet the following criteria: Negative CSF (<1:4) for EHV-1; Normal serum values for Vitamin E (.2.0 μg/mL); Lack of seizure disorders; Lack of behavior disorders.
Diagnosed horses were randomly assigned to groups. Group 1 horses received the paste formulation daily at a dose rate of 5mg/Kg whereas Group 2 horses received the paste formulation daily at a dose rate of 10 mg/Kg. The treatment dose was based on body weight. The horses were evaluated for a period of 90 days (approximately 60 days after discontinuation of treatment) in order to determine that treatment was indeed effective. The response to treatment was scored using the following system: 1) 0=complete success-clinically normal with a negative CSF; 2) 1=Deficit just detected at a normal gait; 3) 2=Deficit easily detected and exaggerated by backing, turning, swaying, jaw loin pressure and neck extension; 4) 3=Deficit very prominent on walking, Facial turning, loin pressure or neck extension; 5) 4=Stumbling, tripping and falling down spontaneously; 6) 5=Recumbent, unable to rise. An improvement of one (1) unit in the score was considered a significant improvement.

Data set [4] can be described thus: Cerebral spinal fluid drug levels / passage of blood-brain barrier after repeated doses of Toltrazuril in horses. The settings on record: horses. Format: in vivo. The protocol:
This experiment was conducted in order to determine whether triazineones such as Toltrazuril can pass the blood-brain barrier. Normal horses were divided into three groups of three horses per group. Group 1 horses received Toltrazuril administered orally as a 5% suspension at a dose level of 2.5 mg/Kg. Group 2 horses received Toltrazuril administered orally as a 5% suspension at a dose level of 5.0 mg/Kg. Group 3 horses received Toltrazuril administered orally as a 5% suspension at a dose level of 7.5 mg/Kg. The dosing was repeated daily for 10 days. Blood samples were drawn at 48, 96 and 240 hours and the concentration of Toltrazuril, Toltrazuril sulfoxide and Ponazuril in the serum was measured. Ten days after the start of the treatment (Day 10), a sample of cerebral spinal fluid was removed from each horse and the concentrations of Toltrazuril, Toltrazuril Sulfoxide and Ponazuril were again measured in these samples. The concentrations of Toltrazuril, Toltrazuril Sulfoxide and Ponazuril in the serum and cerebral spinal fluid are reported in TABLES 5a and 5b.

[5] abbreviates: after treatment with Toltrazuril.

`Cc1cc(-n2c(=O)[nH]c(=O)n(C)c2=O)ccc1Oc1ccc(S(=O)(=O)C(F)(F)F)cc1` [Ponazuril]: the inhibition at 1 µg/mL in the data set with Sarcocystis falcatula, in the data set on Neospora caninum NC-1 and with Toxoplasma gondii was 100% each time. Moreover, the inhibition at 10 µg/mL in the data set on Sarcocystis neurona amounted to 100%. In addition, the “Toxicity to BT cells” value in data set [1] is listed as “not toxic to the BT cells”. Besides, in [2], the “Levels in serum / bloodstream (in words)” value was “relatively high levels”. Also, the Safety and effectiveness result in [3] is “both safe and effective”. Besides, the “Horses demonstrating acceptable improvement” value in the data set on EPM-Infected Horses (5 mg/Kg dose, eight of nine horses) is listed as 88.9%. The TOTAL clinical score was 17 with EPM-Infected Horses (5 mg/Kg group, Day 0 (baseline)); 13 in the data set with EPM-Infected Horses (5 mg/Kg group, Day 28); 6 in the data set on EPM-Infected Horses (5 mg/Kg group, Day 90); 19 in the data set with EPM-Infected Horses (10 mg/Kg group, Day 0 (baseline)); 15 in the data set on EPM-Infected Horses (10 mg/Kg group, Day 28); 4 in the data set on EPM-Infected Horses (10 mg/Kg group, Day 90). For the same compound, in the data set with EPM-Infected Horses (10 mg/Kg group, 28 days, by day 90 post start of treatment), the “Horses showing significant improvement in clinical score” value stood at 100%. The “Improvement in total scores, Group 1 (5 mg/Kg) versus Group 2 (10 mg/Kg)” value in the data set with EPM-Infected Horses (EPM horses, 5 vs 10 mg/Kg) was “approximately equivalent”. Moreover, in the data set on EPM-Infected Horses (at either 5 mg/Kg or 10 mg/Kg, horses), the “Effectiveness for active treatment of EPM” value is on record as “effective for the active treatment of EPM in horses”. Also, in [4] (after oral Toltrazuril daily for 10 days), the “Crossing of the blood-brain barrier” value is “effectively cross the blood-brain barrier”. The “Concentration in cerebral spinal fluid relative to that of Toltrazuril” value in [4] (setting [5]) was “essentially equivalent to the concentration of Toltrazuril itself”. In data set [4] (setting [5]), the “Crossing of the blood-brain barrier compared with Toltrazuril” value is “crosses this barrier more effectively than does Toltrazuril”.

The term inhibition denotes how much of the control response was suppressed.
